Experimental data taken from patent publication US20240384268A1, “Oligonucleotides” (Hudson Institute of Medical Research, priority 2021, published 2024).
In the oligonucleotide strings, read from the 5' end, every base follows the letter of its sugar. An asterisk marks phosphorothioate; unmarked linkages are phosphodiester. Other units and linkages are bracketed, terminal groups are in braces. A string of capitals states the bases alone. d = 2'-deoxy (DNA); m = 2'-O-methyl

Assays:
TLR4 = experiment: LPS-driven IP-10 in MG-63 cells and immortalised mouse BMDMs; format: cell-based, human; details: 500 nM ASO 6 h; LPS 1 μg/ml overnight
STING = molecular target: T1, STING (Homo sapiens, UniProt Q86WV6); experiment: STING agonist (GSK, DMXAA)-driven IP-10 in MG-63 cells and immortalised mouse BMDMs; format: cell-based; details: C2-Mut1 500 nM 6 h (GSK 100 nM, DMXAA 50 μg/ml); MOE/LNA ASOs 1 mM as printed (GSK, MG-63)
T1 construct: host or cells: MG-63 (human osteosarcoma)

cGAS [1] = molecular target: T2, cGAS (Homo sapiens, UniProt Q8N884); experiment: ISD70-driven IP-10 production in HT-29 cells, ELISA; format: cell-based; set-up: endogenous in cells; details: ISD70 24 h
Protocol: In such examples, inhibition of cGAS activity can be identified by observation of an overall decreased cGAS response of the cell population, or a lower proportion of cells having cGAS-positive activity as compared to positive control condition in which cells are treated with cGAS agonist in the absence of the oligonucleotide (or in the presence of an appropriate control inhibitory agent). In one example, THP-1 or HT-29 cells are transfected with ISD70 and incubated with an oligonucleotide. cGAS activity can then be determined by cytokine (e.g., IP-10 and/or IFNβ) expression (e.g., gene and/or protein expression) and/or secretion levels, such as by ELISA. A similar assay can be performed with LL171 cells transfected with ISD45. […] By way of example, cGAS enzymatic activity may be assessed in vitro using recombinant cGAS and then measuring activity thereof by way of a cGAMP ELISA.
For cGAS stimulations, cells were treated for indicated duration with ASOs, prior to transfection with ISD70 (human cells) or ISD45 (mouse cells) (the ASOs were not washed off prior to ISD transfection unless otherwise indicated). The cGAS ligands ISD45 (Stetson and Medzhitov, 2006) and ISD70 (also known as VACV-70 (Unterholzner et al., 2010)) (Table 1) were resuspended as follows: 5 1d of sense and 5 μl of antisense strands at 10 μg/μl were added to 90 μl PBS under sterile conditions, heated at 75° C. for 30 min, prior to letting cool down at room temperature and aliquoting (stock at 1 μg/1 l). The ISDs were transfected at a concentration of […] at a ratio of 1 μg:1 μl with Lipofectamine 2000 in Opti-MEM (Thermo Fisher Scientific). HEK-TLR3, HEK-TLR7 and […] were treated with indicated concentration of ASOs for 20-50 min, prior to stimulation with poly(I:C) (Invivogen), R848 (Invivogen), Motolimod (MedChemExpress) and the Class B CpG oligonucleotides ODN 2006 (synthesised by IDT and resuspended in RNase-free TE buffer [Table 1]), respectively. The TLR2/1 agonist PAM3CSK4 (Invivogen), the TLR4 agonist lipopolysaccharide (Invivogen), the Class B CpG oligonucleotides ODN 1826 (synthesised by IDT and resuspended in RNase-free TE buffer), the mouse Sting agonist DMXAA (Cayman) and the human STING agonist (compound #3 from (Raanjulu et al., 2018), referred to as GSK herein—kind gift from Cancer Therapeutics CRC, Australia) were used at indicated concentrations. Aspirin (Sigma—A2093) was resuspended in pure medium to 10 mM, filter sterilised and added to the cells at 2 mM final. All ASOs were synthesised by Integrated DNA Technologies (IDT), and resuspended in RNase-free TE buffer, pH 8.0 (Thermo Fisher Scientific). Cell viability was assessed by adding 1× fresh resazurin solution to the wells (10λ solution made up with 7 mg resazurin [Sigma—R7017] dissolved in 3.5 ml PBS, sterile filtered at […]) for 4 h, prior to reading at with a Fluostar OPTIMA (BMG LABTECH) plate-reader (fluorescence: Excitation 535 nm, Emission 590); wells with medium only and 1× resazurin were used as blanks.
Human IP-10 and IFN-β levels were measured using supernatants from the different cultures and were quantified using IP-10 (BD Biosciences, #550926) or IFN-β (PBL assay science, #41415-1) ELISA kits respectively, according to the manufacturers' protocol. Tetramethylbenzidine substrate (Thermo Fisher Scientific) was used for quantification of the cytokines on a Fluostar OPTIMA (BMG LABTECH) plate-reader.

cGAS [2] = molecular target: T2, cGAS; experiment: ISD70-driven IP-10 production in MG-63 cells; format: cell-based; set-up: endogenous in cells; details: C2-Mut1 500 nM 6 h, or ASO847 series ~30 min, ISD70 overnight
cGAS [3] = molecular target: cGAS (Mus musculus, UniProt Q8C6L5); experiment: ISD-driven IP-10 production in immortalised mouse BMDMs; format: cell-based; set-up: endogenous in cells; host or cells: immortalised wild-type mouse bone marrow macrophages (iBMDMs); details: iBMDMs; 500 nM ASO; ISD overnight
Sequence of cGAS (Mus musculus, UniProt Q8C6L5) (Q8C6L5 whole entry): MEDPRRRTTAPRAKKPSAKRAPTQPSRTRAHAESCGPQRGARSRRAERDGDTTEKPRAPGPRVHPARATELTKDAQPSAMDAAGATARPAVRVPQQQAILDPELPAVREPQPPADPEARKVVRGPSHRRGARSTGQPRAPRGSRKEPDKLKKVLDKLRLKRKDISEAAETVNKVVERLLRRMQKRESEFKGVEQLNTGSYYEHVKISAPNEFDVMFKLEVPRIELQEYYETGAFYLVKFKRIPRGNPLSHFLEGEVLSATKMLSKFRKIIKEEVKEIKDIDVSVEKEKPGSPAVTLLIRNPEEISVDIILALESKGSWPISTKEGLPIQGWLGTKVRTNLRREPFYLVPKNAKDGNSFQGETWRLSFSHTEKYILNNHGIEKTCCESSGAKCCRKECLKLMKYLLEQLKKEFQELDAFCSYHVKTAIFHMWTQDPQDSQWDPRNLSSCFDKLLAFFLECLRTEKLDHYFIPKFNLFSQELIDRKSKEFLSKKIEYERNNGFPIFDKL

T2 sequence (Q8N884 whole entry): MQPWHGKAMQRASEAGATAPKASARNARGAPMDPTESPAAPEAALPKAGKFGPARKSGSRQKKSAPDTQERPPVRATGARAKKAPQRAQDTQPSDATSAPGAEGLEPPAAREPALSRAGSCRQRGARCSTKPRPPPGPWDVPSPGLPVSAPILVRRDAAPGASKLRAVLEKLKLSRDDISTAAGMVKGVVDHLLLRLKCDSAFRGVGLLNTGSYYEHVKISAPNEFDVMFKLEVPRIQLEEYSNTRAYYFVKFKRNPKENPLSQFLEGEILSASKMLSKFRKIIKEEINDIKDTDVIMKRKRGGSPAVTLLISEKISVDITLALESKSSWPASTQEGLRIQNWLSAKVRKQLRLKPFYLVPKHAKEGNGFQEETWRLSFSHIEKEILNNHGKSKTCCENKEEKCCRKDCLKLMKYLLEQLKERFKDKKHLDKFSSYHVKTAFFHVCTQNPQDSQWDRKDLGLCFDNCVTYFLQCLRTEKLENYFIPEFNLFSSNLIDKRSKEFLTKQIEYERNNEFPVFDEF
T1 sequence (Q86WV6 whole entry): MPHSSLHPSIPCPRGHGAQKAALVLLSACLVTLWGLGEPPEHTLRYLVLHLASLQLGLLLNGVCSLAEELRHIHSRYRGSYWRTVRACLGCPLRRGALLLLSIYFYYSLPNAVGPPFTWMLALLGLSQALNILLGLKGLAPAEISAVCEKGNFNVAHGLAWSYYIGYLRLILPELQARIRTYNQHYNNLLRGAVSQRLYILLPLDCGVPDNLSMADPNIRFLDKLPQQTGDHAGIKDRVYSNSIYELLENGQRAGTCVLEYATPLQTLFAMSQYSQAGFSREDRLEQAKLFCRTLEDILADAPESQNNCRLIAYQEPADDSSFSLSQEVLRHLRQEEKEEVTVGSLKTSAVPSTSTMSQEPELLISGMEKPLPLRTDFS

## mG*mC*mG*mG*mU*A*T*C*C*A*T*G*T*C*C*mC*mA*mG*mG*mC (mG*mC*mG*mG*mU*dA*dT*dC*dC*dA*dT*dG*dT*dC*dC*mC*mA*mG*mG*mC; antisense) [C2-Mut1]
TLR4
  IP-10 production driven by LPS (in words): did not significantly affect IP-10 production
STING
  IP-10 production driven by STING synthetic agonists (in words): did not significantly affect IP-10 production
cGAS [1]; 187.5 nM ASO overnight
  inhibition of ISD70-dependent IP-10 production (in words): most inhibitory sequence of ISD70 sensing
cGAS [1]; ASO overnight at 125 nM (62.5-125 nM)
  effect on ISD70-induced IP-10 production at low dose (in words): increased inhibitory activity
cGAS [2]
  inhibition of ISD sensing in MG-63, 2′OMe ASOs (in words): significantly impacting ISD sensing
cGAS [3]
  ISD-induced IP-10 in immortalised mouse BMDMs (in words): significantly impacting ISD sensing
